From patent publication US20230127559A1, “PEPTIDE ANALOGS AND USE OF SAME IN TREATING DISEASES, DISORDERS OR CONDITIONS ASSOCIATED WITH MUTANT P53 PROTEIN” (YEDA RESEARCH AND DEVELOPMENT CO. LTD., priority 2020, published 2023)
Read-outs that look alike come from different tables or passages of the source. Where a SMILES comes first, the peptide text is derived from it. Bridges are numbered along the chain shown (N, C = ends). [ ]: non-standard residue; d: D form. The star is where a group is joined. Stearoyl = CCCCCCCCCCCCCCCCCC(=O)*; Myristoyl = CCCCCCCCCCCCCC(=O)*; Dab = NCC[C@H](N)C(=O)O; Dmp = di-methyl proline

Assays:
[1] = Solubility at physiological pH; type: physicochemical
[2] = tested on: WI38 (non-transformed fibroblasts) cells, wtp53; type: cell-based
Protocol: (§1) Cells were cultured in 96 wells plates with 2500-4000 cells/well. Serial dilutions of different peptides were added and the plates incubated for additional 48 h at 37° C. Then medium was removed and cell viability was determined by staining the cells with crystal violet (0.05%) in methanol/PBS (1:5, v/v), for 10 min, followed by 3 washes with PBS. 10% acetic acid was added to each well for 10 min. OD was determined at 595 nm.
(§2) The IC50 tables presented in FIGS. 17-20 are from several representative experiments performed on cell lines expressing several p53 hotspot mutations, as well as control non-transformed cells: […]

[3] = tested on: PANC1 (pancreatic carcinoma) cells, p53R273H; type: cell-based
Protocol: as §1, §2

[4] = tested on: MIA PaCa-2 (pancreatic carcinoma) cells, p53R248W; type: cell-based
Protocol: as §1, §2

[5] = tested on: panel of cell lines expressing mutp53; type: cell-based
Protocol: as §1
(§3) The IC50 tables presented in FIGS. 17-20 are from several representative experiments performed on cell lines expressing several p53 hotspot mutations, as well as control non-transformed cells:
Proline residue position—Based on alanine scanning and molecular dynamics analyses, it is believed that the proline residue at the 6th position from the N-terminal is critical for the peptide's 3D structure and provides some rigidity required for peptide binding and activity. Therefore, it was hypothesized that a change in orientation or tetrahedral angle might increase the affinity of the peptide for p53. Six new peptides were synthesized replacing this proline residue with proline analogs (pCAPs 708-712, and pCAP-716, SEQ ID NOS: 6-10 and 14, respectively). This set of peptides was tested for activity on a panel of cell lines expressing mutp53, and compared it to pCAP-674 (SEQ ID NO: 27) and to the scrambled sequence peptides pCAP-721 (SEQ ID NO: 19) and pCAP-722 (SEQ ID NO: 20).

[6] = tested on: SW-480 (colon carcinoma) cells, p53R273H, P309S; type: cell-based
Protocol: as §1, §2

[7] = tested on: RXF-393 renal cell carcinoma (RCC) cell line, endogenously expressing p53R175H; assay: RXF-393 luciferase xenograft model, tumor growth by IVIS; type: in vivo, athymic Nude-Foxn1nu mice; details: for tumor growth, average IVIS signal (in words): subcutaneous injections 20 mg/Kg, 2 days a week
From the text: To investigate the efficacy of the lead peptides in vivo, a representative cancer cell line-based xenograft model was employed. The selection of the in vivo model was based on the peptide/cell line combination that yielded the strongest effects in culture: human renal carcinoma RXF-393 cells. The peptide analog pCAP-724 (SEQ ID NO: 22), administered by subcutaneous injections and sustained subcutaneous release, was compared to the control scrambled peptide pCAP-722 (SEQ ID NO: 20). Tumor growth was monitored by luciferase activity, measured in an IVIS200® Spectrum system that combines 2D optical and 3D optical tomography in one platform. The system uses leading optical technology for preclinical imaging research and development, ideal for non-invasive longitudinal monitoring of disease progression in living animals
The RXF-393 renal cell carcinoma (RCC) cell line, endogenously expressing p53R175H, and stably expressing Luciferase was utilized. • 1. 0.75×10^6 cells in 50% HBSS 50% Cultrex (1000) were injected subcutaneously, into both hips of athymic Nude-Foxn1nu mice (6 weeks old). • 2. Tumor growth over time was measured by live imaging, using the […] system. Exposure time was calibrated to 20 sec and peak luminescence values were taken for each tumor. • 3. 21 and 24 days after injection of cells, when tumors reached visible size (50-100 mm^3) and an average IVIS signal of 10^7 (100-fold over threshold), the mice were randomly divided into several groups (5 or 6 mice per each group), according to the mode of administration and peptides: • Subcutaneous injections, performed 2 days a week for 3-4 weeks (20 mg/Kg). Two injections will be given for each day of treatment 16 h interval to allow effective level of peptide for 24 h. […]
• 4. Tumor growth over time was measured by live imaging, twice a week. The experiment was conducted until tumors reached the maximal allowed size of 1 cm^3, at which time mice were sacrificed, tumors extracted, measured, photographed, and weighed.

[8] = tested on: PC9 (lung carcinoma) cells, p53R248Q; type: cell-based
Protocol: as §1, §2

[9] = tested on: RXF-393 (renal carcinoma) cells, p53R175H; type: cell-based, human
Protocol: as §1, §3
Fatty acid position. Lead peptides were modified with N-terminal myristic acid to enable the penetration of peptides across the cell membrane. Although myristic acid is usually the default choice for cell permeability, additional options were explored of longer fatty acids and to examine the effect on peptide efficacy in terms of cancer cell killing. A standard crystal violet viability test was performed on human renal carcinoma RXF-393 cells, comparing the original pCAP-553, which has myristic acid (C14), with 4 derivative peptides modified with longer fatty acid chains: palmitic (C16), stearic (C18), […] (C20) and behenic (C22).

[10] = Pharmacokinetic profile, LC-MS of peptide concentration in plasma; type: in vivo, mice
Protocol: FIG. 21 depicts PK profile for pCAP-724 (SEQ ID NO:22). LC-MS analysis of peptide concentration in the plasma of injected mice. Each point represents an average reading from 3 mice. Shown are mean plasma concentrations (mpk) of the peptide, following administration either intravenously at 1 mg/kg (IV) or subcutaneously at 5 mg/kg (SC).
Each point represents the average from 3 mice. When administered subcutaneously into mice, pCAP-724 levels reach a maximal concentration after 2 h and a show a half-life (T1/2) of about 10 h. […] From the PK study, it is estimated that a continuous long-acting administration of 20 mg/kg/day of pCAP-724 (SEQ ID NO: 22) will yield a steady state concentration in the blood of about 7-10 μM.

In the case of CCCCCCCCCCCCCC(=O)N[C@@H](CCCNC(=N)N)C(=O)N[C@@H](CCCNC(=N)N)C(=O)N[C@@H](Cc1c[nH]cn1)C(=O)N[C@@H](CO)C(=O)N[C@@H](C(=O)N1CCC[C@H]1C(=O)N[C@@H](CCN)C(=O)N1CCC[C@H]1C(=O)N[C@@H](CC(=O)O)C(=O)O)C(C)C [pCAP-553, myr-RRHSvP(L-Dab)PD] (Myristoyl-RRHS[dV]P[Dab]PD-OH; C-terminus assumed), the “solubility (in words)” value [1] is reported as “better solubility at physiological pH”, the IC50 ([2]; 48 h) is reported as greater than 40000 nM and the IC50 ([3]; 48 h) is reported as 2100 nM. The IC50 ([4]; 48 h) was 1200 nM and the “activity in viability assays compared with other peptides (in words)” value [5] was “improved efficacy relatively to pCAP-250”.

CCCCCCCCCCCCCCCCCC(=O)N[C@@H](CCCNC(=N)N)C(=O)N[C@@H](CCCNC(=N)N)C(=O)N[C@@H](Cc1c[nH]cn1)C(=O)N[C@@H](CO)C(=O)N[C@@H](C(=O)N1CCC[C@H]1C(=O)N[C@@H](CCN)C(=O)N1CCC[C@H]1C(=O)N[C@@H](CC(=O)O)C(N)=O)C(C)C [pCAP-717, str-RRHSvP(Dab)PD-NH2] (Stearoyl-RRHS[dV]P[Dab]PD-NH2) gave an IC50 ([2]; 48 h) of 35000 nM, an IC50 ([3]; 48 h) of 2150 nM and an IC50 ([6]; 48 h) of 1200 nM. The IC50 ([4]; 48 h) was 300 nM.

For CCCCCCCCCCCCCCCCCC(=O)N[C@@H](CCCNC(=N)N)C(=O)N[C@@H](CCCNC(=N)N)C(=O)N[C@@H](Cc1c[nH]cn1)C(=O)N[C@@H](CO)C(=O)N[C@@H](C(=O)N1CCC[C@@H]1C(=O)N[C@@H](CCN)C(=O)N1CCC[C@H]1C(=O)N[C@@H](CC(=O)O)C(=O)NCC(=O)N[C@@H](CCC(=O)O)C(=O)N[C@@H](C)C(=O)O)C(C)C [pCAP-720, str-RRHSvp(Dab)PDGEA] (Stearoyl-RRHS[dV][dP][Dab]PDGEA-OH; C-terminus assumed), the IC50 ([2]; 48 h) was 32000 nM, the IC50 ([3]; 48 h) was 1240 nM and the IC50 ([6]; 48 h) was 1200 nM. For the same compound, the IC50 ([4]; 48 h) was 300 nM and the “activity in viability assays compared with other peptides (in words)” value [5] was “comparable activity to pCAP-717”.

With CCCCCCCCCCCCCCCCCC(=O)N[C@@H](CC(=O)O)C(=O)N1CCC[C@H]1C(=O)N[C@@H](Cc1c[nH]cn1)C(=O)N[C@@H](C(=O)N[C@@H](CO)C(=O)N1CCC[C@H]1C(=O)N[C@@H](CCCNC(=N)N)C(=O)N[C@@H](CCN)C(=O)N[C@@H](CCCNC(=N)N)C(N)=O)C(C)C [pCAP-722, str-DPHvSPR(Dab)R-NH2, reference compound] (Stearoyl-DPH[dV]SPR[Dab]R-NH2) the “tumor growth, average IVIS signal (in words)” value [7] was “continued its exponential growth”, the IC50 ([2]; 48 h) was greater than 40000 nM and the IC50 ([8]; 48 h) was greater than 40000 nM. For the same compound, the IC50 ([3]; 48 h) was greater than 40000 nM and the IC50 ([9]; 48 h) was greater than 40000 nM.

With CCCCCCCCCCCCCCCCCC(=O)N[C@@H](CCCNC(=N)N)C(=O)N[C@@H](CCCNC(=N)N)C(=O)N[C@@H](Cc1c[nH]cn1)C(=O)N[C@@H](CO)C(=O)N[C@@H]1CCCCNC(=O)[C@H](CC(=O)O)NC(=O)[C@@H]2CCCN2C(=O)[C@H](CCN)NC(=O)[C@H]2CCCN2C1=O [pCAP-724, str-RRHSkp(Dab)PD-Cyc] (Stearoyl-RRHS[dK][dP][Dab]PD; lactam 5-C) the “decrease in tumor signal (IVIS)” value ([7]; Alzet mini pumps 20 mg/Kg/Day SC continuous, within 14 days) was 5 fold, the “tumor growth, average IVIS signal (in words)” value [7] was “slowed down tumor growth for the first 10 days” and the “estimated steady state concentration in the blood” value ([10]; continuous long-acting administration of 20 mg/kg/day) was 7 to 10 µM. For the same compound, the half-life ([10]; mouse, in vivo, sc, 5 mg/kg, administered subcutaneously into mice, read-out: half-life (T1/2) (converted)) was roughly 10 h, the Tmax ([10]; mouse, plasma, sc, 5 mg/kg, administered subcutaneously into mice, read-out: time of maximal plasma concentration) was 2 h and the IC50 ([2]; 48 h) was 32000 nM. It also gave an IC50 ([3]; 48 h) of 1020 nM, an IC50 ([6]; 48 h) of 650 nM and an IC50 ([4]; 48 h) of 250 nM. For the same compound, the “activity in viability assays compared with other peptides (in words)” value [5] was “modest increase in activity compared with pCAP-713” and the IC50 ([5]; 48 h) was 100 to 1000 nM.

Compound CCCCCCCCCCCCCCCCCC(=O)N[C@@H](CC(=O)O)C(=O)N1CCC[C@H]1C(=O)N[C@@H](Cc1c[nH]cn1)C(=O)N[C@H]1CCCCNC(=O)[C@H](CCCNC(=N)N)NC(=O)[C@H](CCN)NC(=O)[C@H](CCCNC(=N)N)NC(=O)[C@@H]2CCCN2C(=O)[C@H](CO)NC1=O [pCAP-725, str-DPHKSPR(Dab)R-Cyc, reference compound] (Stearoyl-DPHKSPR[Dab]R; lactam 4-C) has an IC50 ([2]; 48 h) greater than 40000 nM, an IC50 ([3]; 48 h) greater than 40000 nM and an IC50 ([6]; 48 h) greater than 30000 nM. It also gave an IC50 ([4]; 48 h) greater than 30000 nM.

Compound “str-RRHSv(Dmp)(Dab)PD-NH2 (Stearoyl-RRHS[dV][Dmp][Dab]PD-NH2) [pCAP-716, Dmp—Di-methyl proline]” has an IC50 ([2]; FIG. 19, read-out: WI38 IC50) of 33000 nM, an IC50 ([8]; FIG. 19, read-out: PC9 IC50) of 630 nM and an IC50 ([8]; FIG. 20, read-out: PC9 IC50) of 700 nM. It also gave an IC50 ([3]; FIG. 19, read-out: PANCI IC50) of 2000 nM, an IC50 ([6]; FIG. 20, read-out: SW-480 IC50) of 1000 nM and an IC50 ([4]; FIG. 20, read-out: MIAPaca IC50) of 300 nM. For the same compound, the IC50 ([9]; FIG. 19, read-out: RXF IC50) was 420 nM, the IC50 ([9]; FIG. 20, read-out: RXF 393 IC50) was 300 nM and the “activity in viability assays compared with other peptides (in words)” value [5] was “consistently modestly improved activity over pCAP-674”. The “activity in viability assays compared with other peptides (in words)” value ([5]; listed as 716) was “highest activity”.
